Measured values as given in US20230128252A1, “PHARMACEUTICAL COMPOSITIONS” (Shenzhen Pharmacin Co., Ltd., priority 2020, published 2023).

Tests used:
[1] = pharmacokinetics and tissue distribution after single-dose topical application in minipigs; assay type: in vivo, Bama minipigs; details: Formulation 11 (0.03%) single topical application
Protocol: Studies were performed to evaluate the pharmacokinetics and tissue distribution after a single-dose topical application of Formulation 11 (clofazimine 0.03%) in Bama minipigs. 24 Bama minipigs were divided into 6 groups (n=4), each group of minipigs received a single topical application of Formulation 11 (0.03%) at a dose of 1.5 mg ointment/cm^2. Blood samples, epidermis, dermis, subcutaneous tissue and subcutaneous muscle were collected at 0.5, 4, 24, 48, 72 and 96 hours (one time point for one group) after drug application. A validated LC-MS/MS method was used to determine the concentration of clofazimine in plasma, epidermis, dermis, subcutaneous tissues and subcutaneous muscle and the pharmacokinetic parameters were calculated (the standard curve range of clofazimine is 0.0100˜10.0 ng/mL).

[2] = cited from earlier work
[3] = Skin permeability of clofazimine preparations (vertical Franz diffusion cells); assay type: in vitro ADME, NU/NU nude mice

Compound: CC(C)/N=c1\cc2n(-c3ccc(Cl)cc3)c3ccccc3nc-2cc1Nc1ccc(Cl)cc1 [Clofazimine, N,5-bis(4-chlorophenyl)-3-propan-2-ylimino phenazin-2-amine]
- median time to peak epidermal concentration [1]: about 0.5 h
- median time to peak subcutaneous muscle concentration [1]: about 0.5 h
- median time to peak subcutaneous tissues concentration [1]: about 4 h
- tissue distribution [1]: mainly distributed in the epidermis and dermis, and not absorbed into blood
- Log P [2]: 7.48
- pKa [2]: 8.37
- Water solubility ([2]; virtually insoluble): 0.225 µg/mL
- clofazimine content (Table 12, FIG. 3) ([3]; Gel, PEG 400 10 wt %): 1.6000 μg/cm^2
- clofazimine content (Table 12, FIG. 3) ([3]; Gel, Transcutol): 0.1894 μg/cm^2
- clofazimine content (Table 12, FIG. 3) ([3]; Gel, Tween 80 10 wt %): 0.9800 μg/cm^2
- clofazimine content (Table 12, FIG. 3) ([3]; Gel, labrasol 10 wt %): 0.8200 μg/cm^2
- clofazimine content (Table 12, FIG. 3) ([3]; Solvents (solution), PEG 400 99.9 wt %): 0.2700 μg/cm^2
- clofazimine content (Table 12, FIG. 3) ([3]; Solvents (solution), Transcutol): 0.0596 μg/cm^2
- clofazimine content (Table 12, FIG. 3) ([3]; Solvents (solution), Tween 80 99.9 wt %): 0.2500 μg/cm^2
- clofazimine content (Table 12, FIG. 3) ([3]; Solvents (solution), labrasol 99.9 wt %): 0.2600 μg/cm^2
- clofazimine content ([3]; gel: Carbomer 940 0.5, Transcutol 20, Lecithin 5 wt %, pH 7.0, clofazimine amount 0.01%): 0.0568 ug/cm^2
- clofazimine content ([3]; gel: Carbomer 940 0.5, Transcutol 20, Lecithin 5 wt %, pH 7.0, clofazimine amount 0.02%): 0.1971 ug/cm^2
- clofazimine content ([3]; gel: Carbomer 940 0.5, Transcutol 20, Lecithin 5 wt %, pH 7.0, clofazimine amount 0.05%): 0.5394 ug/cm^2
- clofazimine content ([3]; gel: Carbomer 940 0.5, Transcutol 20, Lecithin 5 wt %, pH 7.0, clofazimine amount 0.1%): 0.8014 ug/cm^2
- clofazimine content ([3]; gel: Carbomer 940 0.5, Transcutol 20, Lecithin 5 wt %, pH 7.0, clofazimine amount 0.2%): 0.7102 ug/cm^2
- clofazimine content ([3]; gel: Carbomer 940 0.5, Transcutol 20, Lecithin 5 wt %, pH 7.0, clofazimine amount 0.5%): 0.7512 ug/cm^2
- clofazimine content ([3]; gel: clofazimine 0.1, Carbomer 940 0.5, Transcutol 20, Lecithin 5 wt %, pH 6.0): 0.4246 ug/cm^2
- clofazimine content ([3]; gel: clofazimine 0.1, Carbomer 940 0.5, Transcutol 20, Lecithin 5 wt %, pH 7.0): 0.4146 ug/cm^2
- clofazimine content ([3]; gel: clofazimine 0.1, Carbomer 940 0.5, Transcutol 20, Lecithin 5 wt %, pH 8.0): 0.3463 ug/cm^2
- clofazimine content ([3]; gel: clofazimine 0.1, Carbomer 940 0.5, Transcutol 20, Lecithin 5 wt %, pH 9.0): 0.2970 ug/cm^2
- clofazimine content ([3]; gel: clofazimine 0.1, Carbomer 940 0.5, Transcutol 20, Lecithin 5 wt %, pH 9.5): 0.2463 ug/cm^2
- clofazimine content ([3]; gel: clofazimine 0.1, Carbomer 940 0.5, Transcutol 20 wt %, pH 7.0, Control (water instead of penetration enhancer)): 0.1331 ug/cm^2
- clofazimine content ([3]; gel: clofazimine 0.1, Carbomer 940 0.5, Transcutol 20 wt %, pH 7.0, lecithin 2%): 0.2272 ug/cm^2
- clofazimine content ([3]; gel: clofazimine 0.1, Carbomer 940 0.5, Transcutol 20 wt %, pH 7.0, lecithin 3%): 0.2745 ug/cm^2
- clofazimine content ([3]; gel: clofazimine 0.1, Carbomer 940 0.5, Transcutol 20 wt %, pH 7.0, lecithin 4%): 0.3026 ug/cm^2
- clofazimine content ([3]; gel: clofazimine 0.1, Carbomer 940 0.5, Transcutol 20 wt %, pH 7.0, lecithin 5%): 0.3578 ug/cm^2
- clofazimine content ([3]; gel: clofazimine 0.1, Carbomer 940 0.5, Transcutol 20 wt %, pH 7.0, lecithin 6%): 0.3335 ug/cm^2
- clofazimine content ([3]; gel: clofazimine 0.1, Carbomer 940 0.5, Transcutol 20 wt %, pH 7.0, lecithin 10%): 0.3968 ug/cm^2
- clofazimine content ([3]; gel: clofazimine 0.1, Carbomer 940 0.5, Transcutol 20 wt %, pH 7.0, lecithin 19%): 0.2989 ug/cm^2
- clofazimine content ([3]; gel: clofazimine 0.1, Carbomer 940 0.5, Transcutol 20 wt %, pH 7.0, penetration enhancer 4 wt %: DMSO): 0.1806 ug/cm^2
- clofazimine content ([3]; gel: clofazimine 0.1, Carbomer 940 0.5, Transcutol 20 wt %, pH 7.0, penetration enhancer 4 wt %: Ethanol): 0.2055 ug/cm^2
- clofazimine content ([3]; gel: clofazimine 0.1, Carbomer 940 0.5, Transcutol 20 wt %, pH 7.0, penetration enhancer 4 wt %: Lecithin): 0.9881 ug/cm^2
- clofazimine content ([3]; gel: clofazimine 0.1, Carbomer 940 0.5, Transcutol 20 wt %, pH 7.0, penetration enhancer 4 wt %: Octanol): 0.6230 ug/cm^2
- clofazimine content ([3]; gel: clofazimine 0.1, Carbomer 940 0.5, Transcutol 20 wt %, pH 7.0, penetration enhancer 4 wt %: Oleic acid): 0.2344 ug/cm^2
- clofazimine content ([3]; gel: clofazimine 0.1, Carbomer 940 0.5, Transcutol 20 wt %, pH 7.0, penetration enhancer 4 wt %: SDS (0.05%)): 0.1829 ug/cm^2
- clofazimine content ([3]; gel: clofazimine 0.1, Carbomer 940 0.5, Transcutol 20 wt %, pH 7.0, penetration enhancer 4 wt %: Tween 20): 0.1535 ug/cm^2
- clofazimine content ([3]; gel: clofazimine 0.1, Carbomer 940 0.5, Transcutol 20 wt %, pH 7.0, penetration enhancer 4 wt %: Tween 80): 0.2484 ug/cm^2
- clofazimine content ([3]; gel: clofazimine 0.1, Carbomer 940 0.5 wt %, pH 7.0, solvent 10 wt % PEG 400, 4 hours): 1.6000 ug/cm^2
- clofazimine content ([3]; gel: clofazimine 0.1, Carbomer 940 0.5 wt %, pH 7.0, solvent 10 wt % Transuctol, 4 hours): 0.1894 ug/cm^2
- clofazimine content ([3]; gel: clofazimine 0.1, Carbomer 940 0.5 wt %, pH 7.0, solvent 10 wt % Tween 80, 4 hours): 0.9800 ug/cm^2
- clofazimine content ([3]; gel: clofazimine 0.1, Carbomer 940 0.5 wt %, pH 7.0, solvent 10 wt % labrasol, 4 hours): 0.8200 ug/cm^2
- clofazimine content ([3]; gel: clofazimine 0.1, Transcutol 20, Lecithin 5 wt %, pH 7.0, Carbomer 940 amount 0.5%): 0.4871 ug/cm^2
- clofazimine content ([3]; gel: clofazimine 0.1, Transcutol 20, Lecithin 5 wt %, pH 7.0, Carbomer 940 amount 0.8%): 0.3054 ug/cm^2
- clofazimine content ([3]; gel: clofazimine 0.1, Transcutol 20, Lecithin 5 wt %, pH 7.0, Carbomer 940 amount 1.0%): 0.3205 ug/cm^2
- clofazimine content ([3]; inner skin, 4 hours, solution, clofazimine 100 mg in 99.9 g Ethanol): 0.5565 ug/cm^2
- clofazimine content ([3]; inner skin, 4 hours, solution, clofazimine 100 mg in 99.9 g KHS-15): 0.0660 ug/cm^2
- clofazimine content ([3]; inner skin, 4 hours, solution, clofazimine 100 mg in 99.9 g Laurocapram): 0.3593 ug/cm^2
- clofazimine content ([3]; inner skin, 4 hours, solution, clofazimine 100 mg in 99.9 g Oleic acid): 0.0577 ug/cm^2
- clofazimine content ([3]; inner skin, 4 hours, solution, clofazimine 100 mg in 99.9 g PEG 400): 0.1174 ug/cm^2
- clofazimine content ([3]; inner skin, 4 hours, solution, clofazimine 100 mg in 99.9 g Transuctol): 0.0596 ug/cm^2
- clofazimine content ([3]; inner skin, 4 hours, solution, clofazimine 100 mg in 99.9 g Tween 20): 0.0639 ug/cm^2
- clofazimine content ([3]; inner skin, 4 hours, solution, clofazimine 100 mg in 99.9 g Tween 80): 0.0660 ug/cm^2
